Among the data in ChEMBL document CHEMBL4765391, “Design, synthesis, and Structure-Activity Relationships (SAR) of 3-vinylindazole derivatives as new selective tropomyosin receptor kinases (Trk) inhibitors” (Eur J Med Chem, 2020) are IC50 values, retold here.

Assay [1] concerns BaF3. Description: Antiproliferative activity against mouse BaF3 cells transfected with wild type CD74-NTRK1 (unknown origin) assessed as cell viability measured after 72 hrs by Micro plate reader method. Conditions: BaF3, 72 h.
The subject of assay [2] is BaF3. Description: Antiproliferative activity against mouse BaF3 cells assessed as cell viability measured after 72 hrs by Micro plate reader method. The settings on record: BaF3, 72 h. The class given is functional, cell-based.
Assay [3] concerns BaF3. Description: Antiproliferative activity against mouse BaF3 cells transfected with wild type ETV6-NTRK2 (unknown origin) harbouring G639R mutation assessed as cell viability measured after 72 hrs by Micro plate reader method. The settings on record: BaF3, 72 h. The class given is functional, cell-based.
The test system of assay [4] is BaF3. Description: Antiproliferative activity against mouse BaF3 cells transfected with wild type ETV6-NTRK2 (unknown origin) assessed as cell viability measured after 72 hrs by Micro plate reader method. The settings on record: BaF3, 72 h.
In assay [5] the test system is BaF3. The assay is described as follows: Antiproliferative activity against mouse BaF3 cells transfected with wild type CD74-NTRK1 (unknown origin) harbouring G667C mutation assessed as cell viability measured after 72 hrs by Micro plate reader method. Conditions: BaF3, 72 h. The class given is functional, cell-based.
Assay [6] has as its system BaF3. Description: Antiproliferative activity against mouse BaF3 cells transfected with wild type ETV6-NTRK3 (unknown origin) harbouring G696A mutation assessed as cell viability measured after 72 hrs by Micro plate reader method. The class given is functional, cell-based. The settings on record: BaF3, 72 h.
Assay [7] concerns BaF3. Description: Antiproliferative activity against mouse BaF3 cells transfected with wild type CD74-NTRK1 (unknown origin) harbouring G595R mutation assessed as cell viability measured after 72 hrs by Micro plate reader method. The class given is functional, cell-based. The settings on record: BaF3, 72 h.
Assay [8] has as its system BaF3. Description: Antiproliferative activity against mouse BaF3 cells transfected with wild type ETV6-NTRK3 (unknown origin) harbouring G623R mutation assessed as cell viability measured after 72 hrs by Micro plate reader method. The class given is functional, cell-based. The settings on record: BaF3, 72 h.
Assay [9] deals with BaF3. The assay is described as follows: Antiproliferative activity against mouse BaF3 cells transfected with wild type ETV6-NTRK3 (unknown origin) assessed as cell viability measured after 72 hrs by Micro plate reader method. Conditions: BaF3, 72 h.
For assay [10], the target named is BDNF/NT-3 growth factors receptor (Homo sapiens, UniProt Q16620). Description: Inhibition of TrkB (unknown origin) using Tyr1 peptide as substrate in presence of ATP measured after 2 hrs by FRET-based Z-Lyte kinase assay.
For assay [11], the target named is High affinity nerve growth factor receptor (Homo sapiens, UniProt P04629). Description: Inhibition of TrkA (unknown origin) using Tyr1 peptide as substrate in presence of ATP measured after 2 hrs by FRET-based Z-Lyte kinase assay.
Chain of High affinity nerve growth factor receptor (P04629 whole entry): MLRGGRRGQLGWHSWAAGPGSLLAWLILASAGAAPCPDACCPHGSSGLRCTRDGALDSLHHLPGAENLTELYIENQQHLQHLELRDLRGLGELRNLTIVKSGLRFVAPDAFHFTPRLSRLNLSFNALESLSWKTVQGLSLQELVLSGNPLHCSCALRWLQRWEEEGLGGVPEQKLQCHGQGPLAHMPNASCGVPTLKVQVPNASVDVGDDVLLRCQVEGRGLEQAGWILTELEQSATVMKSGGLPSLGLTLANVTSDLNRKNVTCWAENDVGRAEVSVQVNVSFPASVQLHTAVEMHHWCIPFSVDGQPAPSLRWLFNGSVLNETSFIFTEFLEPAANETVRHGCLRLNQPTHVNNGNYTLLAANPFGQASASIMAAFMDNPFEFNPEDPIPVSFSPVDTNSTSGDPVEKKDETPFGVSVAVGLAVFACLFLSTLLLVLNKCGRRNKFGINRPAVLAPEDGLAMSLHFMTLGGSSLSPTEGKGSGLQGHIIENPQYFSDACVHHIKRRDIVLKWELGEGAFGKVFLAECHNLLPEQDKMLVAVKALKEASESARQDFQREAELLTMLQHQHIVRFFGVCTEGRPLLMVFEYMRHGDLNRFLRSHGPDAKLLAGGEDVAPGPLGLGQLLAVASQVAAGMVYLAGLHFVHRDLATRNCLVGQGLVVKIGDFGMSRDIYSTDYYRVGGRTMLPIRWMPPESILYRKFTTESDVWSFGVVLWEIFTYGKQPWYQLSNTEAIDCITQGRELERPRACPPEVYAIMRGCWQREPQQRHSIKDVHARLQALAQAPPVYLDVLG

Chain of BDNF/NT-3 growth factors receptor (Q16620 whole entry): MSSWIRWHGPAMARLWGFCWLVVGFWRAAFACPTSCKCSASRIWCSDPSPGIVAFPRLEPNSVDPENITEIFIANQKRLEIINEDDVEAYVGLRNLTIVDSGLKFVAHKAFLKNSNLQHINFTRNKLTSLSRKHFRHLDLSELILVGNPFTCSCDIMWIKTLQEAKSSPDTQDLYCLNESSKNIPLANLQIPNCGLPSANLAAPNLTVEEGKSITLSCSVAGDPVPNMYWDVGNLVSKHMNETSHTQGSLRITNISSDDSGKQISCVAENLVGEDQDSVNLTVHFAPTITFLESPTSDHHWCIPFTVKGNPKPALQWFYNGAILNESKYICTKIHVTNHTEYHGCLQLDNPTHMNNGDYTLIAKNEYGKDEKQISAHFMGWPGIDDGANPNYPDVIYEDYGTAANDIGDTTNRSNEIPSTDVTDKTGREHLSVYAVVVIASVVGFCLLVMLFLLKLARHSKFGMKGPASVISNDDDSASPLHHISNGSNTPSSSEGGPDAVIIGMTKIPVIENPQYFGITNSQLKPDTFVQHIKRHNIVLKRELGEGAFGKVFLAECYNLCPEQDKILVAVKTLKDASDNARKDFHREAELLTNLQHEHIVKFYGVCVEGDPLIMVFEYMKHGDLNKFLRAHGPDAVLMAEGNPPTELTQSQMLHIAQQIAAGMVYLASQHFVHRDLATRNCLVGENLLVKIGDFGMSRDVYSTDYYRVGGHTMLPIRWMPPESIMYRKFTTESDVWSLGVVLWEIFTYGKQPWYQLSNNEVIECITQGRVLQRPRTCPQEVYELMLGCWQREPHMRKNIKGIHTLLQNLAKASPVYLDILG

As a reminder, the IC50 is the point on the concentration scale where inhibition reaches its midpoint. Take `O=C(Nc1cnn2ccc(N3CCC[C@@H]3c3cc(F)ccc3F)nc12)N1CC[C@H](O)C1` [LAROTRECTINIB]: the IC50 in the assay with BaF3 [1] is 16 nM; in the assay with BaF3 [2], over 10000 nM; in the assay with BaF3 [3], 2240 nM; in the assay on BaF3 [4], 40 nM; in the assay with BaF3 [5], 184 nM; in the assay on BaF3 [6], 54 nM. Also, the IC50 with BaF3 [7] was 539 nM; in the assay on BaF3 [8], 1200 nM; in the assay on BaF3 [9] it was 13 nM.

On to `Fc1cc(F)cc(Sc2ccc3[nH]nc(/C=C/c4ccccn4)c3c2)c1`, for which the results for the IC50 in assay [10] and in assay [11] were 4.8 nM and 23.9 nM, respectively.

Regarding `O=C(Nc1ccc2[nH]nc(/C=C/c3ccccn3)c2c1)c1cc(F)cc(F)c1`, the IC50 is 244 nM in assay [10] and 189 nM in [11].

Take `O=C(Nc1cc(F)cc(F)c1)c1ccc2[nH]nc(/C=C/c3ccccn3)c2c1`: the IC50 in assay [10] and in assay [11] was over 1000 nM in each case.

Consider `Fc1cc(F)cc(Cc2ccc3[nH]nc(/C=C/c4ccccn4)c3c2)c1`, for which the 50% inhibitory concentration (IC50) turned out to be 133 nM in the assay on BaF3 [1]; 1.3 nM in assay [10]; 161 nM in the assay with BaF3 [4]; 7.6 nM in assay [11]; 125 nM in the assay with BaF3 [9].

Consider `Fc1cc(Cl)cc(CNc2ccc3[nH]nc(/C=C/c4ccccn4)c3c2)c1`, for which the 50% inhibitory concentration (IC50) turned out to be 15.4 nM in assay [10] and 2 nM in [11].

As to `CN(Cc1cc(F)cc(F)c1)c1ccc2[nH]nc(/C=C/c3ccccn3)c2c1`, the IC50 in [10] was found to be 8 nM; in assay [11], 29 nM.

`Fc1cc(F)cc(Nc2ccc3[nH]nc(/C=C/c4ccccn4)c3c2)c1`: in [10], the IC50 was determined as 30.7 nM.

As to `Fc1cc(F)cc(C#Cc2ccc3[nH]nc(/C=C/c4ccccn4)c3c2)c1`, the concentration for half-maximal inhibition (IC50) in [10] and in [11] was over 1000 nM throughout.

For `CN(c1cc(F)cc(F)c1)c1ccc2[nH]nc(/C=C/c3ccccn3)c2c1`, the IC50 came to 23.6 nM in assay [10] and 40.6 nM in [11].

On to `Fc1cc(F)cc(OCc2ccc3[nH]nc(/C=C/c4ccccn4)c3c2)c1`, for which the IC50 in [10] was found to be 7.2 nM; in [11], 20.9 nM.

As for `Fc1cc(F)cc(COc2ccc3[nH]nc(/C=C/c4ccccn4)c3c2)c1`, the IC50 in the assay with BaF3 [1] came out at 133 nM; in [10], 1.2 nM; in the assay with BaF3 [4], 169 nM; in assay [11], 13.2 nM; in the assay on BaF3 [9], 118 nM.

Take `Cc1cc(F)cc(CNc2ccc3[nH]nc(/C=C/c4ccccn4)c3c2)c1`: the IC50 came to 50.1 nM in assay [10] and 10.4 nM in [11].

On to `Fc1cc(F)cc(NCc2ccc3[nH]nc(/C=C/c4ccccn4)c3c2)c1`, for which the values for the IC50 in assay [10] and in assay [11] were 3.5 nM and 10.4 nM, respectively.

With `CN(Cc1ccc2[nH]nc(/C=C/c3ccccn3)c2c1)c1cc(F)cc(F)c1`, the IC50 was found to be 42.5 nM in assay [10] and 12 nM in assay [11].

As to `Fc1cc(F)cc(CCc2ccc3[nH]nc(/C=C/c4ccccn4)c3c2)c1`, the results for the IC50 in [10] and in assay [11] were 8.5 nM and 3.7 nM, respectively.

Consider `Fc1cccc(CNc2ccc3[nH]nc(/C=C/c4ccccn4)c3c2)c1`, for which the results for the IC50 in [10] and in assay [11] were 4.9 nM and 5.7 nM, respectively.

On to `Fc1cc(Br)cc(CNc2ccc3[nH]nc(/C=C/c4ccccn4)c3c2)c1`, for which the 50% inhibitory concentration (IC50) in assay [10] came out at 30.6 nM; in [11], 10.4 nM.

For `COc1cc(F)cc(CNc2ccc3[nH]nc(/C=C/c4ccccn4)c3c2)c1`, the IC50 came to 26.7 nM in assay [10] and 3.1 nM in assay [11].

Take `Fc1ccc(CNc2ccc3[nH]nc(/C=C/c4ccccn4)c3c2)cc1`: the values for the IC50 in [10] and in assay [11] were 78.9 nM and 49.3 nM, respectively.

Turning to `Fc1cc(F)cc(-c2ccc3[nH]nc(/C=C/c4ccccn4)c3c2)c1`, the IC50 in assay [10] amounted to 729 nM; in [11], 254 nM.

Take `Fc1ccccc1CNc1ccc2[nH]nc(/C=C/c3ccccn3)c2c1`: the IC50 in [10] is 36.2 nM; in assay [11], 8.8 nM.

For the compound `N#Cc1cc(F)cc(CNc2ccc3[nH]nc(/C=C/c4ccccn4)c3c2)c1`, the half-maximal inhibitory concentration (IC50) is 17.7 nM in assay [10] and 3.5 nM in assay [11].

Regarding `Fc1cc(F)cc(Oc2ccc3[nH]nc(/C=C/c4ccccn4)c3c2)c1`, the IC50 amounted to 4 nM in assay [10] and 23.3 nM in assay [11].

On to `Fc1cc(F)cc(CNc2ccc3[nH]nc(/C=C/c4ccccn4)c3c2)c1`, for which the IC50 with BaF3 [1] is 35 nM; in assay [10] it was 8.3 nM; with BaF3 [2], 489 nM; with BaF3 [4], 34 nM; in assay [11], 1.5 nM; with BaF3 [9], 14 nM.

For the compound `C(=C\c1n[nH]c2ccc(NCc3ccccc3)cc12)/c1ccccn1`, the IC50 in assay [10] stood at 1.1 nM; in assay [11] it was 10.6 nM.

Regarding `Fc1cc(CNc2ccc3[nH]nc(/C=C/c4ccccn4)c3c2)cc(C(F)(F)F)c1`, the figures for the IC50 in [10] and in [11] were 245 nM and 76.3 nM, respectively.
